From patent US20260144788A1, “COMPOUND FOR SHP2 PROTEIN DEGRADATION AND MEDICAL USES THEREOF” (UBIX THERAPEUTICS, INC., priority 2022, published 2026)

Target: T1, SHP2 protein (Homo sapiens, UniProt Q06124)
T1 sequence (Q06124 1-593): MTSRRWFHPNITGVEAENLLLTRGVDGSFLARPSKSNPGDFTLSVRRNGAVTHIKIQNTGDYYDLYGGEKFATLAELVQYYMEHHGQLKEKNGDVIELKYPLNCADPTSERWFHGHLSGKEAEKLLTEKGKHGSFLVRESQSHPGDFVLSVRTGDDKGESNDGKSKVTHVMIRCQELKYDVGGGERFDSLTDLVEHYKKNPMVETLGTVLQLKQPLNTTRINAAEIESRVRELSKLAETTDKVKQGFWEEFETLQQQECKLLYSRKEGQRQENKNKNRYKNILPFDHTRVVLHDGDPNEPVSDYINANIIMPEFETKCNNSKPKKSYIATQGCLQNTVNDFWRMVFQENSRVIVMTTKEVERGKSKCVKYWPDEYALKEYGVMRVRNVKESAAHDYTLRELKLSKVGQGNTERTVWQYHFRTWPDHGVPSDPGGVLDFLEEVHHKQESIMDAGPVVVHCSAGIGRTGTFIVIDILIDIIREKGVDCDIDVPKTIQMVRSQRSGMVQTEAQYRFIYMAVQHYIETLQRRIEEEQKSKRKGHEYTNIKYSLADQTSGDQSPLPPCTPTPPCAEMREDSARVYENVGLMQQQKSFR
Assay: Measurement of SHP2 protein degradation in NCI-H358 cells (western blotting)
Format: cell-based
Set-up: endogenous in cells; host or cells: NCI-H358
Details: harvested after 24 hours
In short: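 H358 cells in RPMI1640/25 mM HEPES/10% FBS, cultured 24 h, then exposed to compound at final 0.001, 0.01 and 0.1 μM for 24 h against a DMSO control. Lysates were normalised for protein by BCA and probed by western blot for SHP2, with GAPDH as loading control.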

Row | Compound | SHP2% degradation (0.01 μM) | SHP2% degradation (0.1 μM)
1 | CC(=O)N[C@H](C(=O)N1C[C@H](O)C[C@H]1C(=O)NCc1ccc(-c2scnc2C)cc1OC1CCN(C(=O)C2CCN(c3cccc(Sc4cnc(N5CCC(C)(CN)CC5)c(CO)n4)c3Cl)CC2)CC1)C(C)(C)C [Example 83, (2S,4R)-1-((S)-2-acetamido-3,3-dimethylbutanoyl)-N-(2-((1-(1-(3-((5-(4-(aminomethyl)-4-methylpiperidin-1-yl)-6-(hydroxymethyl)pyrazin-2-yl)thio)-2-chlorophenyl)piperidine-4-carbonyl)piperidin-4-yl)oxy)-4-(4-methylthiazol-5-yl)benzyl)-4-hydroxypyrrolidine-2-carboxamide] | 97.8% | 99.7%
2 | CC(=O)N[C@H](C(=O)N1C[C@H](O)C[C@H]1C(=O)NCc1ccc(-c2scnc2C)cc1OC1CCN(C(=O)C2CCN(c3cccc(Sc4cnc(N5CCC(C)(N)CC5)c(CO)n4)c3Cl)CC2)CC1)C(C)(C)C [Example 84, (2S,4R)-1-((S)-2-acetamido-3,3-dimethylbutanoyl)-N-(2-((1-(1-(3-((5-(4-amino-4-methylpiperidin-1-yl)-6-(hydroxymethyl)pyrazin-2-yl)thio)-2-chlorophenyl)piperidine-4-carbonyl)piperidin-4-yl)oxy)-4-(4-methylthiazol-5-yl)benzyl)-4-hydroxypyrrolidine-2-carboxamide] | 92.4% | 99.9%
3 | CC(=O)N[C@H](C(=O)N1C[C@H](O)C[C@H]1C(=O)NCc1ccc(-c2scnc2C)cc1OC1CCN(C(=O)C2CCN(c3cccc(Sc4cnc(N5CCC6(CC5)CO[C@@H](C)[C@H]6N)c(CO)n4)c3Cl)CC2)CC1)C(C)(C)C [Example 85, (2S,4R)-1-((S)-2-acetamido-3,3-dimethylbutanoyl)-N-(2-((1-(1-(3-((5-((3S,4S)-4-amino-3-methyl-2-oxa-8-azaspiro[4.5]decan-8-yl)-6-(hydroxymethyl)pyrazin-2-yl)thio)-2-chlorophenyl)piperidine-4-carbonyl)piperidin-4-yl)oxy)-4-(4-methylthiazol-5-yl)benzyl)-4-hydroxypyrrolidine-2-carboxamide] | 98.3% | 99.9%
4 | Cc1ncsc1-c1ccc(CNC(=O)[C@@H]2C[C@@H](O)CN2C(=O)[C@@H](NC(=O)CC#N)C(C)(C)C)c(OC2CCN(C(=O)C3CCN(c4nccc(Sc5cnc(N6CCC7(CC6)CO[C@@H](C)[C@H]7N)c(CO)n5)c4Cl)CC3)CC2)c1 [Example 88, (2S,4R)—N-(2-((1-(1-(4-((5-((3S,4S)-4-amino-3-methyl-2-oxa-8-azaspiro[4.5]decan-8-yl)-6-(hydroxymethyl)pyrazin-2-yl)thio)-3-chloropyridin-2-yl)piperidine-4-carbonyl)piperidin-4-yl)oxy)-4-(4-methylthiazol-5-yl)benzyl)-1-((S)-2-(2-cyanoacetamido)-3,3-dimethylbutanoyl)-4-hydroxypyrrolidine-2-carboxamide] | 97.0% | 99.9%
5 | Cc1ncsc1-c1ccc(CNC(=O)[C@@H]2C[C@@H](O)CN2C(=O)[C@@H](NC(=O)CO)C(C)(C)C)c(OC2CCN(C(=O)C3CCN(c4nccc(Sc5cnc(N6CCC7(CC6)CO[C@@H](C)[C@H]7N)c(CO)n5)c4Cl)CC3)CC2)c1 [Example 89, (2S,4R)—N-(2-((1-(1-(4-((5-((3S,4S)-4-amino-3-methyl-2-oxa-8-azaspiro[4.5]decan-8-yl)-6-(hydroxymethyl)pyrazin-2-yl)thio)-3-chloropyridin-2-yl)piperidine-4-carbonyl)piperidin-4-yl)oxy)-4-(4-methylthiazol-5-yl)benzyl)-4-hydroxy-1-((S)-2-(2-hydroxyacetamido)-3,3-dimethylbutanoyl)pyrrolidine-2-carboxamide] | 98.8% | 99.9%
6 | CC(=O)N[C@H](C(=O)N1C[C@H](O)C[C@H]1C(=O)NCc1ccc(-c2scnc2C)cc1OC1CCN(C(=O)C2CCN(c3nccc(Sc4cnc(N5CCC(C)(CN)CC5)cn4)c3Cl)CC2)CC1)C(C)C [Example 90, (2S,4R)-1-(acetyl-L-valyl)-N-(2-((1-(1-(4-((5-(4-(aminomethyl)-4-methylpiperidin-1-yl)pyrazin-2-yl)thio)-3-chloropyridin-2-yl)piperidine-4-carbonyl)piperidin-4-yl)oxy)-4-(4-methylthiazol-5-yl)benzyl)-4-hydroxypyrrolidine-2-carboxamide] | 70.5% | 99.2%
7 | CC(=O)N[C@H](C(=O)N1C[C@H](O)C[C@H]1C(=O)NCc1ccc(-c2scnc2C)cc1OC1CCN(C(=O)C2CCN(c3nccc(Sc4cnc(N5CCC(C)(CN)CC5)cn4)c3Cl)CC2)CC1)C1CC1 [Example 91, (2S,4R)-1-((S)-2-acetamido-2-cyclopropylacetyl)-N-(2-((1-(1-(4-((5-(4-(aminomethyl)-4-methylpiperidin-1-yl)pyrazin-2-yl)thio)-3-chloropyridin-2-yl)piperidine-4-carbonyl)piperidin-4-yl)oxy)-4-(4-methylthiazol-5-yl)benzyl)-4-hydroxypyrrolidine-2-carboxamide] | 53.2% | 98.5%
8 | Cc1cc(C(C(=O)N2C[C@H](O)C[C@H]2C(=O)NCc2ccc(-c3scnc3C)cc2OC2CCN(C(=O)C3CCN(c4nccc(Sc5cnc(N6CCC(C)(CN)CC6)cn5)c4Cl)CC3)CC2)C(C)C)on1 (stereo partly drawn) [Example 92, (2S,4R)—N-(2-((1-(1-(4-((5-(4-(aminomethyl)-4-methylpiperidin-1-yl)pyrazin-2-yl)thio)-3-chloropyridin-2-yl)piperidine-4-carbonyl)piperidin-4-yl)oxy)-4-(4-methylthiazol-5-yl)benzyl)-4-hydroxy-1-(3-methyl-2-(3-methylisoxazol-5-yl)butanoyl)pyrrolidine-2-carboxamide] | 30.1% | 80.2%
9 | Cc1cc(C(C(=O)N2C[C@H](O)C[C@H]2C(=O)NCc2ccc(-c3scnc3C)cc2OC2CCN(C(=O)C3CCN(c4nccc(Sc5cnc(N6CCC(C)(CN)CC6)cn5)c4Cl)CC3)CC2)C(C)C)on1 (stereo partly drawn) [Example 93, (2S,4R)—N-(2-((1-(1-(4-((5-(4-(aminomethyl)-4-methylpiperidin-1-yl)pyrazin-2-yl)thio)-3-chloropyridin-2-yl)piperidine-4-carbonyl)piperidin-4-yl)oxy)-4-(4-methylthiazol-5-yl)benzyl)-4-hydroxy-1-(3-methyl-2-(3-methylisoxazol-5-yl)butanoyl)pyrrolidine-2-carboxamide] | 99.9% | 99.9%
10 | Cc1cc(C(C(=O)N2C[C@H](O)C[C@H]2C(=O)NCc2ccc(-c3scnc3C)cc2OC2CCN(C(=O)C3CCN(c4nccc(Sc5cnc(N6CCC(C)(N)CC6)cn5)c4Cl)CC3)CC2)C(C)C)on1 (stereo partly drawn) [Example 94, (2S,4R)—N-(2-((1-(1-(4-((5-(4-amino-4-methylpiperidin-1-yl)pyrazin-2-yl)thio)-3-chloropyridin-2-yl)piperidine-4-carbonyl)piperidin-4-yl)oxy)-4-(4-methylthiazol-5-yl)benzyl)-4-hydroxy-1-(3-methyl-2-(3-methylisoxazol-5-yl)butanoyl)pyrrolidine-2-carboxamide] | 95.5% | 100.0%
11 | Cc1cc(C(C(=O)N2C[C@H](O)C[C@H]2C(=O)NCc2ccc(-c3scnc3C)cc2OC2CCN(C(=O)C3CCN(c4nccc(Sc5cnc(N6CCC7(CC6)CO[C@@H](C)[C@H]7N)cn5)c4Cl)CC3)CC2)C(C)C)on1 (stereo partly drawn) [Example 95, (2S,4R)—N-(2-((1-(1-(4-((5-((3S,4S)-4-amino-3-methyl-2-oxa-8-azaspiro[4.5]decan-8-yl)pyrazin-2-yl)thio)-3-chloropyridin-2-yl)piperidine-4-carbonyl)piperidin-4-yl)oxy)-4-(4-methylthiazol-5-yl)benzyl)-4-hydroxy-1-(3-methyl-2-(3-methylisoxazol-5-yl)butanoyl)pyrrolidine-2-carboxamide] | 99.2% | 99.7%
12 | Cc1cc(C(C(=O)N2C[C@H](O)C[C@H]2C(=O)NCc2ccc(-c3scnc3C)cc2OC2CCN(C(=O)C3CCN(c4nccc(Sc5cnc(N6CCC(C)(CN)CC6)c(CO)n5)c4Cl)CC3)CC2)C(C)C)on1 (stereo partly drawn) [Example 96, (2S,4R)—N-(2-((1-(1-(4-((5-(4-(aminomethyl)-4-methylpiperidin-1-yl)-6-(hydroxymethyl)pyrazin-2-yl)thio)-3-chloropyridin-2-yl)piperidine-4-carbonyl)piperidin-4-yl)oxy)-4-(4-methylthiazol-5-yl)benzyl)-4-hydroxy-1-(3-methyl-2-(3-methylisoxazol-5-yl)butanoyl)pyrrolidine-2-carboxamide] | 98.9% | 99.9%
